{"source": "patent US20120129189A1", "about": "“Methods of Controlling Cell Proliferation” (priority 2009, published 2012)", "key": {"[1]": {"tested_on": "β-Catenin in SW480 cells", "assay": "Western analysis of β-Catenin in SW480 cells", "format": "cell-based, human", "method": "(§1) Cells were scraped off the 100-mm dish and lysed in 1 ml of lysis buffer (1 mM PMSF, 1 mM EDTA, 10 mM Tris-HCl, 0.1% Triton X100, 1× Complete Protease Inhibitor Cocktail (Roche) in PBS). The lysates were spun down, and 1 μg of anti-c-Myc antibody (Sigma, M4439) or anti-Flag antibody (Sigma, F1804) was added to 500 μl of the supernatant. A 50-50 mixture of protein A Sepharose (Amersham) and protein G Sepharose (Amersham) was added to the lysate/antibody mixture for immunoprecipitation for 1 hour. The resulting outputs were washed with lysis buffer and subjected to western blot analysis. For western blotting, samples were analyzed using antibodies against active-β-Catenin (anti-ABC, Millipore), phospho-β-Catenin (Ser33/37/Thr41, Cell Signaling), β-Catenin (sc-1496, Santa Cruz Biotechnology) and Gapdh (Santa Cruz Biotechnology).\n(§2) FIGS. 5A-I. γ-Secretase Inhibitors (GSIs) Suppress Expansion of Human Colon Cancer Cells by Blocking Notch Cleavage (A) Western analysis of active β-Catenin in SW480 colon cancer cells transfected with control or siRNA against Notch1-4 (100 nM each). (B) Relative β-Catenin/TCF activity of SW480 cells treated with increasing doses of DAPT for 96 h. (C) Western analysis of β-Catenin levels in SW480 and a second colon cancer cell line, HT-29, treated with increasing doses (0, 25, 50 or 100 μM) of DAPT for 96 h. (D) Relative number of SW480 cells treated with DAPT (50 or 100 μM) for 72 h. (E) Western analysis of active β-Catenin levels in SW480 cells with increasing DAPT in the presence or absence of proteasome inhibitor (PI) MG-132 (5 nM) for 72 h. […] (F) Notch/RBP-J activity of SW480 cells treated with increasing doses of Ibuprofen. Notch/RBP-J activity was measured by transfecting cells with a luciferase reporter downstream of multiple RBP-J sites. (G) Relative β-Catenin/TCF activity of SW480 cells treated with Ibuprofen for 72 h. (H) Western analysis of active β-Catenin in SW480 cells treated with Ibuprofen for 72 h. (I) Western analysis of active β-Catenin in SW480 cells transfected with Notch1-4 (100 nM each) siRNA and treated with or without ibuprofen. Gapdh antibody was used as a loading control. All luciferase values were normalized to Renilla activity and represent n=4. *, P<0.01. Con, control; N1-4 KD, Notch 1-4 siRNA."}, "[2]": {"tested_on": "β-Catenin/TCF activity in SW480 cells", "assay": "β-Catenin/TCF luciferase activity in SW480 cells", "format": "cell-based, human", "method": "(§3) For Notch, RBP-J or Numb/Numbl knockdown experiments, Notch1-4, RBPSUH or Numb/Numbl On-TARGETplus SMARTpool (Dharmacon L-041110, L-044202, L-047867, L-046498, L-007772 or L-046935/L-046983) or Block-iT Alexa Fluor Red (46-5, 318, Invitrogen) was used at concentrations of 50, 100, or 200 nM for cell transfection. Tethered and truncated forms of Notch1 constructs were kindly provided by Drs. R. Kopan (Washington University, St. Louis, Mo.) and M. Nakafuku (Cincinnati Children's Hospital, Cincinnati, Ohio), respectively. Cells were transfected with Lipofectamine LTX (Invitrogen) or Lipofectamine 2000 (Invitrogen) in single-cell suspensions. For gene expression analysis, qPCR was performed with the ABI Prism system (7900HT, Applied Biosystems) with the following primers: β-Catenin (Mm01350394_m1), Cyclin D1 (Mm00432359_m1), Gapdh (Mm99999915_g1). All samples were run at least in triplicate. Real-time quantitative PCR data were normalized and standardized with SDS2.2 software. […]\n(§4) FIGS. 5A-I. γ-Secretase Inhibitors (GSIs) Suppress Expansion of Human Colon Cancer Cells by Blocking Notch Cleavage (A) Western analysis of active β-Catenin in SW480 colon cancer cells transfected with control or siRNA against Notch1-4 (100 nM each). […] Notch/RBP-J activity was measured by transfecting cells with a luciferase reporter downstream of multiple RBP-J sites. […]"}, "[3]": {"tested_on": "Notch/RBP-J activity in SW480 cells", "assay": "Notch/RBP-J-dependent luciferase activity in SW480 cells", "format": "cell-based, human", "conditions": "SW480, increasing doses of Ibuprofen", "method": "as §3, §4"}, "[4]": {"tested_on": "active β-Catenin in ESCs", "assay": "Western analysis of active β-Catenin in ESCs", "format": "cell-based", "excerpt": "Gapdh antibody was used as a loading control. h, head; ht, heart tube; Con, control; N1 KD, Notch1 siRNA; N1-4 KD, Notch 1-4 siRNA."}, "[5]": {"tested_on": "ESCs", "assay": "Relative number of ESCs after treatment", "format": "cell-based", "conditions": "DAPT 50 or 100 μM, 48 h", "text": "(§5) FIGS. 3A-I. Membrane-Bound Notch Negatively Regulates Active β-Catenin Levels in Stem Cells (A) Schematic representation of wildtype Notch1 and cleavage site-mutated tethered forms of Notch1 (V1744K and V1774L). […] (C) BIO-treated ESCs transfected with WT or mutant Notch1 constructs and, immunoprecipitated (IP) with anti-Myc antibody and immunoblotted (IB) with β-Catenin antibody. Notch1 expression was detected with anti-Myc antibody. Arrowheads indicate cleaved Notch1. (D) Western analysis of active β-Catenin in ESCs transfected with WT or mutant Notch1 constructs. (E) Relative β-Catenin/TCF activity of ESCs and NSCs treated with increasing doses of DAPT for 72-96 h. (F) Western analysis of active β-Catenin in ESCs, NSCs, and bone marrow mesenchymal stem cells (MSCs) treated with increasing doses (0, 25, 50 or 100 μM) of DAPT for 72-96 h. (G) Relative number of ESCs after treatment with DAPT (50 or 100 μM) for 48 h. (H) Relative expression of Cyclin D1 mRNA in ESCs transfected with control (LacZ) or tethered Notch (V1774L) and cultured for 72 h. (I) Relative expression of Brachyury, Nestin and Sox17 mRNA in ESCs maintained without LIF for 72 h after transfection with control (LacZ) or tethered Notch (V1774L); *, P<0.01; NS, not significant. […] Con, control."}, "[6]": {"tested_on": "SW480 cells", "assay": "Relative number of SW480 cells (cell expansion)", "format": "cell-based, human", "conditions": "SW480 (FIG. 5D), DAPT 50 or 100 μM, 72 h; text names SW480 and HT-29", "method": "as §2, with “Con, control; N1-4 KD, Notch 1-4 siRNA.” left out"}, "[7]": {"tested_on": "β-Catenin/TCF activity in ESCs", "assay": "β-Catenin/TCF-directed luciferase reporter (Topflash) in ESCs", "format": "cell-based", "conditions": "increasing doses of DAPT, 72-96 h", "method": "as §3, with “For gene expression analysis, qPCR was performed with the ABI Prism system (7900HT, Applied Biosystems) with the following primers: β-Catenin (Mm01350394_m1), Cyclin D1 (Mm00432359_m1), Gapdh (Mm99999915_g1). All samples were run at least in triplicate.” left out\nFIGS. 1A-F. Notch Negatively Regulates Active β-Catenin in Stem Cells Independently of RBP-J (A) Western analysis of ESCs transfected with control or Notch1 (N1) siRNA (50 or 100 nM) with active β-Catenin (Act β-Cat) antibody that detects N-terminal-dephosphorylated β-Catenin. (B and C) Relative β-Catenin/TCF-directed luciferase activity in ESCs (B) or neural stem cells (NSCs) (C) transfected with control siRNA or siRNA against Notch1 or Notch1-4. β-Catenin/TCF activity was measured by co-transfecting cells with a luciferase reporter downstream of multiple TCF binding sites (Topflash). […]"}, "[8]": {"tested_on": "hESCs, NSCs and bone marrow mesenchymal stem cells", "assay": "β-Catenin activity and protein in other stem cells", "format": "cell-based", "conditions": "increasing doses of DAPT, 72-96 h", "text": "as §5"}, "[9]": {"tested_on": "β-Catenin in HT-29 cells", "assay": "Western analysis of β-Catenin in HT-29 cells", "format": "cell-based, human", "conditions": "HT-29, DAPT 0, 25, 50 or 100 μM, 96 h", "method": "as §1\nas §4, with “each). (B) Relative β-Catenin/TCF activity of SW480 cells treated with increasing doses of DAPT for 96 h.” for “each).”"}}, "note": "Peptide text beside a SMILES is read from it. * marks the point of attachment. Cbz = O=C(OCc1ccccc1)*", "data": [{"molecule": "CC(C)Cc1ccc(C(C)C(=O)O)cc1", "note": "(centres unmarked) [Ibuprofen]", "values": [{"measurement": "active β-Catenin protein", "setting": "[1]; SW480, Ibuprofen, 72 h", "result": "lowered"}, {"measurement": "reduction of β-Catenin protein levels after knockdown of Notch1-4", "setting": "[1]; SW480 transfected with Notch1-4 siRNA (100 nM each), with or without ibuprofen", "result": "not observed"}, {"measurement": "active β-Catenin transcriptional activity", "setting": "[2]; SW480, Ibuprofen, 72 h", "result": "lowered"}, {"measurement": "canonical Notch transcriptional activity (Notch/RBP-J-dependent luciferase activity)", "setting": "[3]", "result": "dose-dependent decrease"}]}, {"molecule": "O=C1Nc2cc(Br)ccc2/C1=C1/Nc2ccccc2/C1=N\\O", "note": "[BIO, 6-bromoindirubin-3′-oxime]", "values": [{"measurement": "active β-Catenin levels", "setting": "[4]; BIO 2 μM", "result": "greatly increases"}]}, {"molecule": "CC(C)C[C@@H](C=O)NC(=O)[C@H](CC(C)C)NC(=O)[C@H](CC(C)C)NC(=O)OCc1ccccc1", "note": "[MG-132] (Cbz-Leu-Leu-Leu-aldehyde)", "values": [{"measurement": "active β-Catenin levels", "setting": "[1]; SW480, proteasome inhibitor MG-132 (5 nM), 72 h", "result": "higher levels of β-Catenin"}]}, {"molecule": "C[C@H](NC(=O)Cc1cc(F)cc(F)c1)C(=O)N[C@H](C(=O)OC(C)(C)C)c1ccccc1", "note": "[DAPT, N—[N-(3,5-difluorophenacetyl)-L-alanyl]-S-phenylglycine t-butyl ester]", "values": [{"measurement": "cell numbers", "setting": "[5]", "result": "significant decrease"}, {"measurement": "active β-Catenin protein levels", "setting": "[4]; DAPT 0, 25, 50 or 100 μM, 72-96 h", "result": "significant reduction"}, {"measurement": "cell expansion (relative cell number)", "setting": "[6]", "result": "dose-dependent decrease"}, {"measurement": "active β-Catenin activity (relative β-Catenin/TCF activity)", "setting": "[7]", "result": "significant reduction"}, {"measurement": "active β-Catenin activity and protein levels", "setting": "[8]", "result": "trend was also observed"}, {"measurement": "β-Catenin protein", "setting": "[1]; SW480, DAPT 0, 25, 50 or 100 μM, 96 h", "result": "dose-dependent decrease"}, {"measurement": "β-Catenin protein", "setting": "[9]", "result": "dose-dependent decrease"}, {"measurement": "TCF/β-Catenin-dependent transcriptional activity", "setting": "[2]; SW480 (FIG. 5B), increasing doses of DAPT, 96 h, text names SW480 and HT-29", "result": "dose-dependent decrease"}]}]}
